According to patent publication US20100048657A1, “CONTROL OF MALIGNANT CELLS PROLIFERATION THROUGH THE INHIBITION OF CASEIN KINASE 2” (CLEVELAND STATE UNIVERSITY, priority 2006, published 2010):

System: MEG-01 cells
Test: Anchorage independence assay in soft agar
Type: cell-based, human
Conditions: 25 μM
Method: Anchorage independence of growth in soft agar assay is an assay for detecting malignant transformation of cells. Anchorage independence is given by defects in the cellular adhesion pathways. Anchorage independence is strongly connected with tumorogenicity and invasiveness. Malignant cells form colonies when grown on soft agar. Normal cells cannot grow on soft agar. Agarose (V3121 from Promega, with melting point at 87-89° C. and gelling point at 36-39° C.) was mixed with MEG-01 growth media RPMI1640 1× with 10% FBS and supplements. A bottom layer of 0.5% makes a firm base, then a top layer of 0.3% agarose with media and over the agarose a layer of growth media was added. Cells were grown in 12 wells dishes at 37° C., 5% CO2, 90% humidity in a VWR incubator. […] This modified image was then transformed into a default threshold image and then colonies were gated and measured.
Referring to FIGS. 2-4, anchorage independence assay in soft agar ([…] and 0.3% top layer agar, with complete MEG-01 cells, growth media) is illustrated. […] The area of each colony was measured using the software NIH Image version 1.63. First the background was subtracted from a gray binary image, then default threshold was applied and then colonies were measured by appropriate gating. 85 colonies from 30 images were measured. […]

Compound: CN(C)c1nc2c(Br)c(Br)c(Br)c(Br)c2[nH]1 [DMAT, 2-dimethylamino-4,5,6,7-tetrabromo-1H-benzimidazole]
- colony sizes versus Control untreated (85 colonies from 30 images, paired t-test p<0.0001): extremely significant
- colony formation in soft agar (observed after one week): do not form colonies at all
